Earlier results on two compounds are cited in patent publication US8680301B2, “Lipase activity inhibitors containing high-molecular weight polyphenol fractions, tea extracts, and processes for producing the same” (Suntory Holdings Limited, priority 2004, dated 2014).

The conditions of this data set: clinical reports.

Regarding `OC1(c2ccc(Cl)cc2)c2ccccc2C2=NCCN21` (centres unmarked) [Mazindole®], the Reported side effects result is “side effects such as excessive thirst (mouth dryness), constipation, epigastric distress, nausea and vomiting”.

Take `CCCCCCCCCCC[C@@H](C[C@@H]1OC(=O)[C@H]1CCCCCC)OC(=O)[C@H](CC(C)C)NC=O` [Xenical®]: the Reported side effects result was “side effects such as fatty stool, increased stool frequency, soft stool, diarrhea and stomachache”.
